This is an account of results in PubChem BioAssay (NCI).

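How tested: cells in 96-well plates exposed to compound for 48 hours at five concentrations. TGI denotes the concentration required for complete inhibition of growth.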 Bounds are passed on as bounds.

Some test systems named below: UO-31 renal; KM12 colon; A498 renal; HOP-62 NSCLC; SW-620 colon; SK-MEL-2 melanoma; HCT-116 colon; TK-10 renal; DU-145 prostate; T-47D breast.
What all share (test): growth of human tumour cells (NCI), 48 h

In the case of `COC(=O)C(C/C=C(\C)c1ccc(Cl)cc1)C(C)=O` (stereo unspecified), the TGI is 85.4 µM in the assay with UO-31 renal; more than 100 µM in the assay with KM12 colon; more than 100 µM in the assay with A498 renal; more than 100 µM in the assay with HOP-62 NSCLC; more than 100 µM in the assay with SW-620 colon; 32.9 µM in the assay on SK-MEL-2 melanoma. In the assay with HCT-116 colon, this compound displayed a TGI of more than 100 µM.
For `Cc1c2ccncc2c(C)c2c1[nH]c1ccc(OCC(F)(F)F)cc12`, the TGI in the assay on TK-10 renal amounted to 3.58 µM; with UO-31 renal it was 3.16 µM; with KM12 colon it was 2.79 µM; in the assay on HOP-62 NSCLC it was 3.03 µM; in the assay on SW-620 colon it was 1.99 µM; in the assay with SK-MEL-2 melanoma it was 3.19 µM.
Turning to `COC1(O)c2cccc(Cl)c2C(=O)N1C1(C(N)=O)CCCCC1` (stereo unspecified), the TGI in the assay with UO-31 renal, with KM12 colon, in the assay with A498 renal, in the assay on HOP-62 NSCLC, with SW-620 colon and with SK-MEL-2 melanoma was more than 100 µM throughout. The compound also came in with a TGI with HCT-116 colon of more than 100 µM.
`CSc1nc2c(ncn2C2OCC(O)C(O)C2O)c(=O)n1C` (stereo unspecified): the TGI in the assay on UO-31 renal, with KM12 colon, in the assay on A498 renal, in the assay on HOP-62 NSCLC, in the assay with SW-620 colon and with SK-MEL-2 melanoma was more than 100 µM throughout. The TGI in the assay on HCT-116 colon is more than 100 µM.
Regarding `NN1C(=O)C(CCO)S/C1=N/N=C1/SC(CCO)C(=O)N1N` (stereo unspecified), the TGI in the assay with UO-31 renal, in the assay on KM12 colon, in the assay on A498 renal, in the assay on HOP-62 NSCLC, with SW-620 colon and with SK-MEL-2 melanoma was more than 100 µM each time. In the assay with HCT-116 colon, this compound returned a TGI of more than 100 µM.
As for `C/C(=N\Nc1nc2cccnc2s1)c1ccccn1`, the TGI in the assay on UO-31 renal was 0.307 µM; with DU-145 prostate, more than 100 µM; with KM12 colon it was more than 33.6 µM; with A498 renal it was more than 100 µM; in the assay on SW-620 colon, more than 100 µM; in the assay on SK-MEL-2 melanoma, more than 34.6 µM. The TGI with HCT-116 colon is more than 32.2 µM.
For `CCOP(=O)(OCC)/C(C#N)=C/c1cnc[nH]1`, the TGI in the assay on TK-10 renal, in the assay on UO-31 renal, in the assay with DU-145 prostate, in the assay on KM12 colon, in the assay with A498 renal and with HOP-62 NSCLC was more than 100 µM throughout. Besides, the TGI in the assay with SW-620 colon, with SK-MEL-2 melanoma and with HCT-116 colon was more than 100 µM throughout.
On to `COc1cc(C2C(Cl)C(=O)N2NC(=O)c2ccc(N)cc2)cc(Br)c1O` (stereo unspecified), for which the TGI in the assay on TK-10 renal amounted to 32.5 µM; in the assay on UO-31 renal it was 35.6 µM; in the assay on KM12 colon, 30.7 µM; with A498 renal it was 59 µM; in the assay with HOP-62 NSCLC, 28.9 µM; with SW-620 colon, 35.1 µM. The values for the TGI in the assay with SK-MEL-2 melanoma and in the assay on HCT-116 colon were 32.3 µM and 22.3 µM, respectively.
As for `COc1ccccc1/C=C1\NC(=S)N(/C=C2\C(=O)Oc3ccccc3C2=O)C1=O`, the TGI was more than 100 µM in the assay with TK-10 renal; 82.9 µM in the assay on UO-31 renal; more than 100 µM in the assay on DU-145 prostate; more than 100 µM in the assay on KM12 colon; more than 100 µM in the assay with HOP-62 NSCLC; more than 100 µM in the assay on SW-620 colon. Besides, the TGI in the assay with SK-MEL-2 melanoma and in the assay on HCT-116 colon was more than 100 µM in each case.
In the case of `CC(C)(CCCCC(C)(C)[N+](C)(C)C)[N+](C)(C)C`, the TGI in the assay with TK-10 renal, in the assay on UO-31 renal, in the assay with HOP-62 NSCLC, in the assay with T-47D breast, in the assay with SW-620 colon and with HCT-116 colon was more than 100 µM each time.
Take `Brc1ccc2c(c1)-c1nc3nc4c(cc3cc1CC2)CCc1ccc(Br)cc1-4`: the TGI in the assay with TK-10 renal, in the assay on UO-31 renal, in the assay with KM12 colon, with A498 renal, with HOP-62 NSCLC and in the assay with T-47D breast was more than 100 µM each time. Further, the TGI in the assay on SW-620 colon, in the assay on SK-MEL-2 melanoma and in the assay with HCT-116 colon was more than 100 µM throughout.
In the case of `O=C1CC(=O)NC(=NNS(=O)(=O)c2ccccc2)N1`, the TGI in the assay on TK-10 renal, in the assay on UO-31 renal, with DU-145 prostate, in the assay with KM12 colon, with HOP-62 NSCLC and with T-47D breast was more than 100 µM in each case. The TGI with SW-620 colon, in the assay with SK-MEL-2 melanoma and in the assay on HCT-116 colon was more than 100 µM in each case.
With `COc1ccc(C(=O)C(c2ccc(OCc3ccccc3)cc2)c2ccc(OCc3ccccc3)cc2)cc1`, the TGI with TK-10 renal, in the assay on UO-31 renal, in the assay with KM12 colon, in the assay on HOP-62 NSCLC, with SW-620 colon and with SK-MEL-2 melanoma was more than 100 µM each time. Also, the TGI in the assay on HCT-116 colon is more than 100 µM.
Consider `OCCN1CCN2C=C(C3CCCC4N(CCO)CCN34)CCC21` (stereo unspecified), for which the TGI was more than 100 µM in the assay on TK-10 renal; more than 100 µM in the assay with UO-31 renal; more than 100 µM in the assay with KM12 colon; more than 100 µM in the assay on A498 renal; more than 100 µM in the assay on HOP-62 NSCLC; more than 67.9 µM in the assay on SW-620 colon. Besides, the figures for the TGI in the assay on SK-MEL-2 melanoma and in the assay with HCT-116 colon were more than 75.6 µM and more than 87.2 µM, respectively.
On to `Clc1ccc(-c2c(C3=NCCCN3)nnn2-c2ccccc2)cc1`, for which the TGI in the assay on TK-10 renal was more than 100 µM; in the assay with UO-31 renal, more than 100 µM; in the assay on KM12 colon, more than 100 µM; in the assay with A498 renal, more than 100 µM; with HOP-62 NSCLC, more than 100 µM; with SW-620 colon it was 46.7 µM. Besides, the TGI with SK-MEL-2 melanoma and with HCT-116 colon was more than 100 µM in each case.
Take `O=C(OCc1ccccc1)N(CCCCN(CCCNCc1ccccc1)C(=O)OCc1ccccc1)CCCNCc1ccccc1`: the TGI stood at 3.43 µM in the assay with TK-10 renal; 2.75 µM in the assay with UO-31 renal; 2.55 µM in the assay on DU-145 prostate; 1.6 µM in the assay on KM12 colon; 3.57 µM in the assay with T-47D breast; 0.39 µM with SW-620 colon. Moreover, the TGI in the assay on SK-MEL-2 melanoma stood at 2.27 µM; in the assay with HCT-116 colon, 0.384 µM.
